System: bacteria isolated from a industrial cooling water sample
Experiment: Time-kill test in cooling water samples (MPN serial dilution)
Assay type: cell-based
Settings: 37° C., start about 5×10^7 CFU/ml
Experimental: In this example, tributyl tetradecyl phosphonium chloride (TTPC), tetrakis(hydroxymethyl)phosphonium sulfate (THPS), and combinations of TTPC and THPS are tested at different concentrations for efficacy against bacteria isolated from a industrial cooling water sample. Water samples containing a final bacterial concentration of about 5×10^7 CFU/ml are used. Biocide solutions are prepared and diluted in sterile deionized water and used within 2 hours.
Time-kill tests are carried out to determine the threshold concentrations required for biocide activity in the cooling water samples. Tests are conducted in a 96-deep well block format using a total sample volume of 600 μl for all evaluations. In these samples, no more than 10% of the total volume consists of the biocide and organism solution and all non-matrix additions are normalized for all samples. Each experimental 96-well block contains biocide-treated samples and control samples which lack biocide. The biocides are added to the bacterial suspension at various concentrations and mixed well. The mixture samples are then incubated at 37° C. At several time intervals starting from 1 hour, viable bacteria left in the mixture are determined using the MPN method of serial dilution.
Synergy Index (SI) is calculated as shown below. An SI value of less than 1 indicates synergy.
Ca: Concentration of biocide A required to achieve bacterial concentrations of 2×10^3 CFU/ml or less when used in combination
CA: Concentration of biocide A required to achieve bacterial concentrations of 2×10^3 CFU/ml or less when used alone
Cb: Concentration of biocide B required to achieve bacterial concentrations of 2×10^3 CFU/ml or less when used in combination
CB: Concentration of biocide B required to achieve bacterial concentrations of 2×10^3 CFU/ml or less when used alone

Molecule: CCCCCCCCCCCCCC[P+](CCCC)(CCCC)CCCC.[Cl-] [TTPC, tributyl tetradecyl phosphonium chloride]
- Concentration of active needed to achieve bacterial concentrations of 2×10^3 CFU/ml or less, biocide used alone (4 hr): 30 ppm
- Concentration of active needed to achieve bacterial concentrations of 2×10^3 CFU/ml or less, biocide used alone (24 hr): 40 ppm
- Concentration of active needed to achieve bacterial concentrations of 2×10^3 CFU/ml or less, biocide used alone (48 hr): 40 ppm
- Concentration of active needed to achieve bacterial concentrations of 2×10^3 CFU/ml or less, biocide used alone (3 day): 40 ppm
- Concentration of active needed to achieve bacterial concentrations of 2×10^3 CFU/ml or less, biocide used alone (5 day): 40 ppm
- Concentration of active needed to achieve bacterial concentrations of 2×10^3 CFU/ml or less, biocide used alone (7 day): 40 ppm

Molecule: tetrakis(hydroxymethyl)phosphonium sulfate [THPS]
- Concentration of active needed to achieve bacterial concentrations of 2×10^3 CFU/ml or less, biocide used alone (4 hr): 100 ppm
- Concentration of active needed to achieve bacterial concentrations of 2×10^3 CFU/ml or less, biocide used alone (24 hr): 75 ppm
- Concentration of active needed to achieve bacterial concentrations of 2×10^3 CFU/ml or less, biocide used alone (48 hr): 75 ppm
- Concentration of active needed to achieve bacterial concentrations of 2×10^3 CFU/ml or less, biocide used alone (3 day): 75 ppm
- Concentration of active needed to achieve bacterial concentrations of 2×10^3 CFU/ml or less, biocide used alone (5 day): 75 ppm
- Concentration of active needed to achieve bacterial concentrations of 2×10^3 CFU/ml or less, biocide used alone (7 day): 75 ppm

Source: patent US20150018317A1, “BIOCIDAL COMPOSITION” (Dow Global Technologies LLC, priority 2010, published 2015)
